The target in series [1] is T1, ovine COX-1 (Ovis aries, UniProt P05979).
T1 construct: purchased Cayman Chemical Company
T1 sequence (P05979 25-600): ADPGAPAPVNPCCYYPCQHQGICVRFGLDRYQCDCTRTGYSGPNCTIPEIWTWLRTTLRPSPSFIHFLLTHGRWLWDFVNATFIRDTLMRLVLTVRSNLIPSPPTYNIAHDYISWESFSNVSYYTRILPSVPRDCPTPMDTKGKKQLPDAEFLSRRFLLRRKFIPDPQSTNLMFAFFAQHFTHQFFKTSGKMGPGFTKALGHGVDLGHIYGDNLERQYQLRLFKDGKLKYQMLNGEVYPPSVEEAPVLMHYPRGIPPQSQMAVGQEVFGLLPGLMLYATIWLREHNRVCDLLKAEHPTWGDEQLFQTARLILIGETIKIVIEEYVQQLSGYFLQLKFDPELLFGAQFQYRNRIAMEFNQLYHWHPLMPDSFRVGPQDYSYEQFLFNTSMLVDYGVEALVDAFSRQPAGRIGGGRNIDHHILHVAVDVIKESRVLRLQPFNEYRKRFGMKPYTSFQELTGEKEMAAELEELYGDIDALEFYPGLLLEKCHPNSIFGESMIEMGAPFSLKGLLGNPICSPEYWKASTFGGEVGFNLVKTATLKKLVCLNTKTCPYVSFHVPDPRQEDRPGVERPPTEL
Put plainly: COX Fluorescent Inhibitor Screening Assay, COX-1. The class given is biochemical. Particulars: in duplicate. Here is the method:
(§1) COX inhibition activity against ovine COX-1 and human COX-2 was determined using the fluorescence-based COX assay COX Fluorescent Inhibitor Screening Assay Kit (Cayman Chemical Company, Ann Arbor, MI, USA) according to the manufacturer’s instructions as previously reported by us. All compounds were screened at a concentration of 100 µM in duplicate.

Series [2] has as its target T2, human recombinant COX-2 (Homo sapiens, UniProt P35354).
T2 construct: purchased Cayman Chemical Company
T2 sequence (P35354 18-604): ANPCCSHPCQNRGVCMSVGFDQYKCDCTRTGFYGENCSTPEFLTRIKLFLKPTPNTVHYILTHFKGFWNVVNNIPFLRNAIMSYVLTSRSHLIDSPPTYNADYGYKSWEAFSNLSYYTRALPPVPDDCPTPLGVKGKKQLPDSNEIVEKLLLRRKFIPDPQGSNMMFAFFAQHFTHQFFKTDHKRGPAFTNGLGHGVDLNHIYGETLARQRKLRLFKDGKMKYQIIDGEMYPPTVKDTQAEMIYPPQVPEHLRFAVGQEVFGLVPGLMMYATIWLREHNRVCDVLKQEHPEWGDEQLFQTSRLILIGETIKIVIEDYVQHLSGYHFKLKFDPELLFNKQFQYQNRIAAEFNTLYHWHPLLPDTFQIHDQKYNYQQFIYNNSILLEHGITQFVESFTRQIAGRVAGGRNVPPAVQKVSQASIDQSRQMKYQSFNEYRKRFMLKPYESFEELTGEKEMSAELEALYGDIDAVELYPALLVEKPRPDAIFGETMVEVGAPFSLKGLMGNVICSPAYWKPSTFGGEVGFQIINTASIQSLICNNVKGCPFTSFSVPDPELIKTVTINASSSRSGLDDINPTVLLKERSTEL
Put plainly: COX Fluorescent Inhibitor Screening Assay, COX-2. The class given is biochemical. Particulars: in duplicate. As for the experimental part:
as §1

Series [3] deals with A375 melanoma. Put plainly: Cell viability, MTT assay, A375. Format: cell-based, human. Particulars: Homo sapiens, A-375; 72 h, mean ± SD. Here is the method:
(§2) Five human cell lines (A375 melanoma, A549 lung adenocarcinoma, HCT116 and HT29 colorectal carcinoma, MDA-MB-231 triple-negative breast adenocarcinoma) were used to study the antitumor effects of the di-tert-butylphenols and their respective carborane analogs. All selected cell lines were derived from inflammation-associated tumors.
(§3) After the incubation period, the supernatant was discarded from the wells, and the cells were washed two times with 200 µL of PBS. Next, MTT solution at a final concentration of 0.5 mg/mL was added and incubated at 37 °C until purple formazan crystals were formed (30 min to one hour). After incubation, the dye was discarded. In order to dissolve the formed formazan crystals DMSO was added, and the absorbance was measured at λmax = 540 nm, with the reference/background wavelength of 670 nm. All results are expressed as a percentage of the control value which was arbitrary set to 100%. After 72 h treatment, cells were washed with 200 µL of PBS and fixed with 4% paraformaldehyde (PFA) for 15 min at room temperature (RT). Next, cells were stained with 1% CV solution. After 20 min, cells were washed in tap water and dried on air. Dye was dissolved in 33% acetic acid and the absorbance was measured at λmax = 540 nm, with the reference/background wavelength of 670 nm. Results were expressed as a percentage of the control value which was arbitrary set to 100%.
(§4) 1. General methods, materials, and procedures
(§5) 1.1.1. Reagents and cells
(§6) Reagents and cells were obtained from following manufacturers: Capricorn Scientific GmbH (Hessen, Germany) – Culture medium RPMI-1640, Dulbecco's Modified Eagle Medium (DMEM), and fetal bovine serum (FBS). Serva (Heidelberg, Germany) – Paraformaldehyde (PFA). Sigma (St. Louis, MO, USA) – Ethylenediaminetetraacetic acid (EDTA), Dimethyl sulfoxide (DMSO), chloroquine, CV, Triton X-100, RNase, PI, PBS, 3-MA, CFSE, and fluorescent mounting medium. AppliChem (MO, USA) –MTT. Thermo Fisher Scientific (Waltham, MA, USA) – DHR. R&D Systems (Minneapolis, MN, USA) – ApoStat. BD (Pharmingen, San Diego, SAD) – Annexin V-FITC (AnnV). Biological Industries (Cromwell, CT, USA) – Penicillin Streptomycin solution. American Type Culture Collection (ATCC, Manassas, Virginia, USA) – Human lung carcinoma (A549), human breast adenocarcinoma (MDA-MB-231), human colorectal ade-nocarcinoma (HT-29), human colorectal carcinoma (HCT116) and human melanoma (A375).
(§7) Cell lines (A375, HCT116, HT-29 and MDA-MB-231) were cultivated in HEPES-buffered RPMI-1640 medium while A549 cell line was cultivated in Dulbecco's Modified Eagle Medium (DMEM) which were previously supplemented with 10% heat-inactivated FBS, penicillin (100 units/mL), and streptomycin (100 μg/mL). All cells were kept at 37 °C in a humidified atmosphere with 5% CO2. For viability determi-nation cells were seeded at following densities in 96-well plates: 4 x 10^3 cells/well (A375, HT-29 and MDA-MB-231), 5 x 10^3 cells/well (HCT116), and 3 x 10^3 cells/well (A549). […]
(§8) Afterwards, cells were washed with phosphate-buffered saline (PBS) and stained with AnnV (15 μg/mL) and PI (15 μg/mL). […]
(§9) PBS and analyzed using flow cytometry. HCT116 cells were stained with 1 µg/mL of AO solution for 15 min at 37 °C to detect the presence of autophagic cell death. Afterwards cells were washed with PBS, resuspended and analyzed by flow cytometry (CyFlow® Space Partec using the PartecFloMax® software
A general note: Formazan colour is commonly taken as a measure of viable cells.

Series [4] concerns A549 lung adenocarcinoma. Put plainly: Cell viability, MTT assay, A549. The class given is cell-based, human. Particulars: Homo sapiens, A549; 72 h, mean ± SD. As for the experimental part: as §2, §3, §4, §5, §6, §7
(§10) Afterwards, cells were washed with phosphate-buffered saline (PBS) and stained with AnnV (15 μg/mL) and PI (15 μg/mL). After 15 min incubation at room temperature (RT) protected from light the cells were resuspended in AnnV-binding buffer and analysed using flow cytom-etry. HCT116 cells were incubated with pan-caspase inhibitor Apostat for 30 min at 37 °C to determine whether detected apoptosis was mediated by caspase activation. Afterwards, cells were washed with PBS and analyzed using flow cytometry. HCT116 cells were stained with 1 µg/mL of AO solution for 15 min at 37 °C to detect the presence of autophagic cell death. Afterwards cells were washed with PBS, resuspended and analyzed by flow cytometry (CyFlow® Space Partec using the PartecFloMax® software

The subject of series [5] is HCT116 colorectal carcinoma. Put plainly: Cell viability, MTT assay, HCT116. Format: cell-based, human. Particulars: Homo sapiens, HCT-116; 72 h, mean ± SD. Here is the method: as §2, §3, §4, §5, §6, §7, §8, §9
For series [6], the system named is HT-29 colorectal carcinoma. Put plainly: Cell viability, MTT assay, HT-29. The class given is cell-based, human. Particulars: Homo sapiens, HT-29; 72 h, mean ± SD. As for the experimental part: as §2, §3, §4, §5, §6, §7, §10
For series [7], the system named is MDA-MB-231 triple-negative breast adenocarcinoma. Put plainly: Cell viability, MTT assay, MDA-MB-231. Format: cell-based, human. Particulars: Homo sapiens, MDA-MB-231; 72 h, mean ± SD. Here is the method: as §2, §3, §4, §5, §6, §7, §10
The subject of series [8] is A375 melanoma. Put plainly: Cell viability, crystal violet (CV) assay, A375. Format: cell-based. Particulars: Homo sapiens, A-375; 72 h, mean ± SD. As for the experimental part:
as §2, §3, §4, §5
as §6, with “American Type Culture Collection (ATCC, Manassas, Virginia, USA) – Human lung carcinoma (A549), human breast adenocarcinoma (MDA-MB-231), human colorectal ade-nocarcinoma (HT-29), human colorectal carcinoma (HCT116) and human melanoma (A375).” left out
as §10, with “HCT116 cells were stained with 1 µg/mL of AO solution for 15 min at 37 °C to detect the presence of autophagic cell death.” left out

Series [9] has as its system A549 lung adenocarcinoma. Put plainly: Cell viability, crystal violet (CV) assay, A549. The class given is cell-based. Particulars: Homo sapiens, 72 h, mean ± SD. As for the experimental part:
as §2, §3, §4, §5
as §6, with “American Type Culture Collection (ATCC, Manassas, Virginia, USA) – Human lung carcinoma (A549), human breast adenocarcinoma (MDA-MB-231), human colorectal ade-nocarcinoma (HT-29), human colorectal carcinoma (HCT116) and human melanoma (A375).” left out
as §10, with “HCT116 cells were stained with 1 µg/mL of AO solution for 15 min at 37 °C to detect the presence of autophagic cell death.” left out

Series [10] relates to HCT116 colorectal carcinoma. Put plainly: Cell viability, crystal violet (CV) assay, HCT116. Format: cell-based. Particulars: Homo sapiens, HCT-116; 72 h, mean ± SD. Here is the method:
as §2, §3, §4, §5
as §6, with “American Type Culture Collection (ATCC, Manassas, Virginia, USA) – Human lung carcinoma (A549), human breast adenocarcinoma (MDA-MB-231), human colorectal ade-nocarcinoma (HT-29), human colorectal carcinoma (HCT116) and human melanoma (A375).” left out
as §10, with “HCT116 cells were stained with 1 µg/mL of AO solution for 15 min at 37 °C to detect the presence of autophagic cell death.” left out

In series [11] the test system is HT-29 colorectal carcinoma. Put plainly: Cell viability, crystal violet (CV) assay, HT-29. Particulars: Homo sapiens, 72 h, mean ± SD. Format: cell-based. As for the experimental part:
as §2, §3, §4, §5
as §6, with “American Type Culture Collection (ATCC, Manassas, Virginia, USA) – Human lung carcinoma (A549), human breast adenocarcinoma (MDA-MB-231), human colorectal ade-nocarcinoma (HT-29), human colorectal carcinoma (HCT116) and human melanoma (A375).” left out
as §10, with “HCT116 cells were stained with 1 µg/mL of AO solution for 15 min at 37 °C to detect the presence of autophagic cell death.” left out

In series [12] the test system is MDA-MB-231 triple-negative breast adenocarcinoma. Put plainly: Cell viability, crystal violet (CV) assay, MDA-MB-231. Format: cell-based. Particulars: Homo sapiens, 72 h, mean ± SD. Here is the method:
as §2, §3, §4, §5
as §6, with “American Type Culture Collection (ATCC, Manassas, Virginia, USA) – Human lung carcinoma (A549), human breast adenocarcinoma (MDA-MB-231), human colorectal ade-nocarcinoma (HT-29), human colorectal carcinoma (HCT116) and human melanoma (A375).” left out
as §10, with “HCT116 cells were stained with 1 µg/mL of AO solution for 15 min at 37 °C to detect the presence of autophagic cell death.” left out

Series [13] in a line: physchem. Particulars: pH 7.4.

As to `CCN1CC/C(=C\c2cc(C(C)(C)C)c(O)c(C(C)(C)C)c2)S1(=O)=O` [Compound S-2474, 2,6-Bis(1,1-dimethylethyl)-4-[(E)-(2-ethyl-1,1-dioxido-5-isothiazolidinylidene)methyl]phenol], the inhibition at 100 µM was 38% in [1] and 86% in series [2]. Moreover, the IC50 is 13.2 ± 2.7 µM in series [3]; 16.2 ± 1.2 µM in [4]; 17.5 ± 1 µM in [5]; 16.1 ± 1.1 µM in [6]; 34.8 ± 1.7 µM in series [7]; 19.2 ± 0.7 µM in [8]. The IC50 is 17.9 ± 1.2 µM in series [9], 23.7 ± 1.9 µM in [10], 23.8 ± 1.7 µM in [11] and 43.5 ± 1.8 µM in series [12]. The compound also gave a chromatographic logD in series [13] of 3.75.

In the case of `CON1CCC(=Cc2cc(C(C)(C)C)c(O)c(C(C)(C)C)c2)C1=O` [Compound E-5110, 3-([3,5-bis(1,1-dimethylethyl)-4-hydroxyphenyl]methylene)-1-methoxy-2-pyrrolidinone], the IC50 was determined as 12.9 ± 1.1 µM in series [3]; 22.1 ± 1.6 µM in series [4]; 25.1 ± 1.1 µM in [5]; 25.6 ± 2.6 µM in series [6]; 34.2 ± 1.2 µM in series [7]; 33.5 ± 1.7 µM in series [8]. The IC50 in [9] is 41.1 ± 4.3 µM; in [10], 39.6 ± 2.8 µM; in series [11], 39.8 ± 2.1 µM; in [12], 47.3 ± 1.7 µM. In series [13], this compound returned a chromatographic logD of 3.35.

Consider `CC(C)(C)c1cc(C=C2CCOC2=O)cc(C(C)(C)C)c1O` [KME-4, 3-([3,5-bis(1,1-dimethylethyl)-4-hydroxyphenyl]methylene)dihydro-2(3H)-furanone], for which the IC50 in series [3] stood at 13.8 ± 0.6 µM; in [4], 21.9 ± 0.7 µM; in [5], 18.4 ± 4.6 µM; in series [6], 18.5 ± 1.5 µM; in [7] it was 80.9 ± 7.3 µM; in [8] it was 36.4 ± 1.3 µM. Further, the IC50 in series [9] was 36.3 ± 2.8 µM; in [10], 36.2 ± 1.9 µM; in series [11] it was 36.2 ± 1.9 µM; in series [12], 88.6 ± 2.4 µM. Moreover, in [13], the chromatographic logD was 3.79.

As usually defined, the inhibition is the relative decrease from the control value, in per cent. What is called IC50 is the concentration at which inhibition is half-maximal. High values mean weaker potency, low ones greater potency. As a reminder, the chromatographic logD is a lipophilicity value derived from retention on a column. Low readings indicate a more hydrophilic compound, high ones a more lipophilic compound.
